This is an account of results in patent US20250136934A1, “PRODUCTION OF INDUCED MIDBRAIN DOPAMINERGIC PROGENITOR CELLS FROM PLURIPOTENT STEM CELLS” (NUWACELL BIOTECHNOLOGIES CO., LTD., priority 2023, published 2025).

For one assay, the system named is imDAP cells. Description: Specification of imDAP cells under BMP and TGF-β signaling inhibition (FACS FOXA2+/OTX2+, NKX2.1 qRT-PCR, LMX1A immunostaining). Particulars: for specification of imDAP cells (FIGS. 13A-13D taken together): LDN193189 at 0.2 μM Day 0 to Day 6 and SB431542 at 50 μM Day 0 to Day 4 or Day 0 to Day 6; for specification of imDAP cells (FIGS. 12A-12C taken together): LDN193189 at 0.5 μM and SB431542 at 20 μM, among all combinations of concentrations tested; for specification of imDAP cells (FIGS. 11A-11C taken together): LDN193189 from D0 to D6 and SB431542 from D0 to D4, among all time windows tested. The assay is classed as cell-based, human.

Another assay concerns FOXA2+ imDAP cells. Description: FACS analysis of FOXA2 expression of imDAP cells derived from hiPSCs. The assay is classed as cell-based, human. Here is the method:
• 1. Individualize and collect cells by either Accutase or TrypLE treatment. • 2. Wash cells with 1 ml PBS and pellet cells at 250×g for […]. • 3. Remove supernatant, add ˜200 μl of 4% PFA, mix and fix for 10 min at RT. • 4. Pellet cells at 350×g for 5 min. • 5. Wash cells by 1 ml of FACS buffer and pellet cells at 350×g for 5 min. • 6. Remove supernatant, add 200 μl/tube of FACS buffer/0.1% Triton X, mix for 10 min at RT. • 7. Wash cells by 1 ml of FACS buffer and pellet cells at 350×g for 5 min. • 8. Remove supernatant, add 200 μl/tube of primary antibody diluted in FACS buffer, mix gently, and incubate for 30 min at RT. • 9. Wash cells by 1 ml of FACS buffer and pellet cells at 350×g for 5 min. • 10. Remove supernatant, and add 200 μl of secondary antibody diluted in FACS buffer, mix gently, and incubate for 30 min at RT. • 11. Wash cells by 1 ml of FACS buffer and pellet cells at 300×g for 5 min. • 12. Remove supernatant, add 200 μl of FACS buffer, and run samples on the flow cytometer.
On Day-1, EB formation (Stage 1) was carried out by dissociating hiPSCs (Nuwacell) to form a single-cell suspension and resuspending it in Epic medium (Nuwacell, #RP01001) containing 10 μM Blebbistatin (MCE, #HY-13441) in T25 flasks on a belly dancer and culturing the cells overnight. On Day 0, ventral midbrain floor plate differentiation (Stage 2) was initiated by changing the medium to a Stage 2-1 differentiation medium containing DMEM: F12/B27 (plus Vitamin A) (98:2, v/v) as basal medium and supplemented with 0.2 μM LDN193189, 10 μM SB431542, 1 μg/mL SHH C24II and 1.25 μM CHIR99021 and culturing the cells for 3 Days. From Day 3, the basal medium was changed to DMEM: F12/B27 (minus Vitamin A) (98:2, v/v), and CHIR concentration was boosted to 7.5 μM until Day 10 (Stage 2-2). SB431542 was withdrawn on Day 4, and SHH C24II was withdrawn on Day 8. From Day 10 (Stage 2-3), the medium was changed to a differentiation medium containing DMEM: F12/B27 (minus Vitamin A) (98:2, v/v) as basal medium and supplemented with 0.2 μM LDN193189 and 3 μM CHIR99021. During the cell culture, each of the differentiation media was replaced every day. On Day 16 (at the end of S2-3), EBs were dissociated for single cells and collected for analysis. The cells of each group were stained with FOXA2-PE antibody (BD, #561689), the percentage of FOXA2+ imDAP cells were analyzed by flow cytometry (FIG. 5). The above experiment was repeated for three times and the derived imDAP cells were named as Lot1, Lot2 and Lot3, respectively.
On Day-1, EB formation (Stage 1) was carried out by dissociating hiPSCs (Nuwacell) to form a single-cell suspension and resuspending it in Epic medium (Nuwacell, #RP01001) containing 10 μM Blebbistatin (MCE, #HY-13441) in T25 flasks on a belly dancer and culturing the cells overnight. On Day 0, ventral midbrain floor plate differentiation (Stage 2) was initiated by changing the medium to a Stage 2-1 differentiation medium containing DMEM: F12/B27 (plus Vitamin A) (98:2, v/v) as basal medium and supplemented with 0.2 μM LDN193189, 20 μM SB431542, 1.2 μM CHIR99021, and 1 μg/mL SHH C24II or the combination of SHH agonists including 500 ng/mL SHH C24II, 2 μM Purmorphamine and 10 nM SAG and culturing the cells for 3 days. From Day 3, the basal medium was changed to DMEM: F12/B27 (minus Vitamin A) (98:2, v/v). Cells were exposed to Boost-CHIR concentration of 7.5 μM starting from Day 4 to Day 6 (Stage 2-2), followed by a low CHIR concentration of 1.2 μM (Stage 2-3) until Day 10. […]
Background: A flow cytometer gives signals particle by particle.

Take `c1ccc2c(-c3cnn4cc(-c5ccc(N6CCNCC6)cc5)cnc34)ccnc2c1` [LDN193189]: in the assay on imDAP cells, the “specification of imDAP cells (FIGS. 13A-13D taken together)” value is listed as “best results”, the “specification of imDAP cells (FIGS. 12A-12C taken together)” value is “best results” and the “specification of imDAP cells (FIGS. 11A-11C taken together)” value is “best results”.

For the molecule “SHH C24II: sonic hedgehog agonist polypeptide, SEQ ID NO: 2”, the “percentage of cells positive for FOXA2” value in the assay with FOXA2+ imDAP cells (4-step protocol, SHH agonist in medium Day 0 to Day 10, analysis Day 16) is recorded as 85.71%.

As for Vitamin A, the “percentage of FOXA2+ cells” value in the assay on FOXA2+ imDAP cells (without Vitamin A throughout differentiation versus Vitamin A only D0-3 or D0-2) was “higher percentage”.

As to `NC(=O)c1ccc(-c2nc(-c3ccc4c(c3)OCO4)c(-c3ccccn3)[nH]2)cc1` [SB431542], in the assay with imDAP cells, the “specification of imDAP cells (FIGS. 13A-13D taken together)” value is listed as “best results”, the “specification of imDAP cells (FIGS. 12A-12C taken together)” value is reported as “best results” and the “specification of imDAP cells (FIGS. 11A-11C taken together)” value is given as “best results”.
